# Assay results as given in US20230279341A1, “NOVEL FAECALIBACTERIUM PRAUSNITZII STRAIN EB-FPDK9 AND USE THEREOF” (ENTEROBIOME INC., priority 2020, published 2023).
# What was measured:
# Assay type in all cases: cell-based
# [1] = system: Faecalibacterium prausnitzii DSM 17677^T; test: MIC, liquid medium microdilution method (CLSI), standard strain
# [2] = system: Faecalibacterium prausnitzii EB-FPDK9 strain; test: MIC, liquid medium microdilution method (CLSI), EB-FPDK9 strain; details: for Resistance or susceptibility of the EB-FPDK9 strain to the antimicrobial agent, in words: text summary of Table 4
# [3] = system: Bacteroides thetiotaomicron ATCC 29741; test: MIC, liquid medium microdilution method (CLSI), QC strain
compound,measurement,setting,value
"O=C(N[C@H](CO)[C@H](O)c1ccc([N+](=O)[O-])cc1)C(Cl)Cl [CHL, chloramphenicol]","Susceptibility class (S/I/R), DSM 17677^T",[1]; CHL breakpoints,R (≥32)
same,"Susceptibility class (S/I/R), EB-FPDK9",[2]; CHL breakpoints,R (≥32)
same,"Resistance or susceptibility of the EB-FPDK9 strain to the antimicrobial agent, in words",[2],resistance
"CCC[C@@H]1C[C@@H](C(=O)N[C@@H]([C@H]2O[C@H](SC)[C@H](O)[C@@H](O)[C@H]2O)[C@H](C)Cl)N(C)C1 [CLI, clindamycin]","Susceptibility class (S/I/R), DSM 17677^T",[1]; CLI breakpoints,S (≤2)
same,"Susceptibility class (S/I/R), EB-FPDK9",[2]; CLI breakpoints,S (≤2)
"CO/N=C(\C(=O)N[C@@H]1C(=O)N2C(C(=O)O)=CCS[C@H]12)c1csc(N)n1 [CTZ, ceftizoxime]","Susceptibility class (S/I/R), DSM 17677^T",[1]; CTZ breakpoints,I (64)
same,"Susceptibility class (S/I/R), EB-FPDK9",[2]; CTZ breakpoints,R (≥128)
same,"Resistance or susceptibility of the EB-FPDK9 strain to the antimicrobial agent, in words",[2],resistance
"C[C@@H](O)[C@H]1C(=O)N2C(C(=O)O)=C(S[C@@H]3CN[C@H](C(=O)N(C)C)C3)[C@H](C)[C@H]12 [MEM, meropenem]",MIC,"[3]; Bacteroides, ATCC29741, read-out: MIC, QC ATCC 29741",0.5 µg/mL
same,"Susceptibility class (S/I/R), DSM 17677^T",[1]; MEM breakpoints,R (≥16)
same,"Susceptibility class (S/I/R), EB-FPDK9",[2]; MEM breakpoints,R (≥16)
same,"Resistance or susceptibility of the EB-FPDK9 strain to the antimicrobial agent, in words",[2],resistance
"Cc1ncc([N+](=O)[O-])n1CCO [MTZ, metronidazole]","Susceptibility class (S/I/R), DSM 17677^T",[1]; MTZ breakpoints,S (≤8)
same,"Susceptibility class (S/I/R), EB-FPDK9",[2]; MTZ breakpoints,S (≤8)
same,"Resistance or susceptibility of the EB-FPDK9 strain to the antimicrobial agent, in words",[2],susceptibility
"COc1c(N2C[C@@H]3CCCN[C@@H]3C2)c(F)cc2c(=O)c(C(=O)O)cn(C3CC3)c12 [MXF, moxifloxacin]","Susceptibility class (S/I/R), DSM 17677^T",[1]; MXF breakpoints,R (≥8)
same,"Susceptibility class (S/I/R), EB-FPDK9",[2]; MXF breakpoints,R (≥8)
Piperacillin-tazobactam [PTZ],"MIC, QC ATCC 29741",[3]; Bacteroides thetiotaomicron ATCC 29741,8/4
same,"MIC, test strain DSM 17677^T",[1]; F. prausnitzii DSM 17677^T,256/4
same,"Susceptibility class (S/I/R), DSM 17677^T",[1]; PTZ breakpoints,R (≥128/4)
same,"MIC, test strain EB-FPDK9",[2]; F. prausnitzii EB-FPDK9,32/4
same,"Susceptibility class (S/I/R), EB-FPDK9",[2]; PTZ breakpoints,S (≤32/4)
same,"Resistance or susceptibility of the EB-FPDK9 strain to the antimicrobial agent, in words",[2],susceptibility
